Key:
A549 cells = assay: Survival assay (MTT), A549; type: cell-based, human; conditions: Homo sapiens
Description: (§1) Cells were passed between 70 and 90% confluence.
(§2) Cells were incubated with the drugs for 72 hours.

22Rv1 cells = assay: Survival assay (MTT), 22Rv1; type: cell-based, human; conditions: Homo sapiens
Description: as §1, §2

MIA PaCa-2 cells = assay: Survival assay (MTT), MIA PaCa-2; type: cell-based, human; conditions: Homo sapiens, MIA PaCa-2
Description: as §1, §2

U937 cells = assay: Survival assay (MTT), U937; type: cell-based, human; conditions: Homo sapiens, U-937
Description: as §1, §2

A375 cells = assay: Survival assay (MTT), A375; type: cell-based, human; conditions: Homo sapiens, A-375
Description: as §1, §2

SK-OV-3 cells = assay: Survival assay (MTT), SK-OV-3; type: cell-based, human; conditions: Homo sapiens
Description: as §1, §2

MCF-7 cells = assay: Survival assay (MTT), MCF-7; type: cell-based, human; conditions: Homo sapiens, MCF7
Description: as §1, §2

U2OS cells = assay: Survival assay (MTT), U2OS; type: cell-based, human; conditions: Homo sapiens
Description: as §1, §2

G7 cells = assay: Survival assay (MTT), G7; type: cell-based, human; conditions: Homo sapiens, G7, Glioma, Grade IV, 72 hours
Description: (§3) Primary glioma neural stem (GNS) cells (G7, G14, G144, G166) were cultured on poly-D-lysine (Merck Millipore, Cat. Nr. A-003-E) and laminin (R&D Systems, Cat.Nr. 3446-005-01) coated plates in neural stem cell medium (50% DMEM-F12 (Thermofisher, Cat. Nr. 21041025), 50% neurobasal medium (Thermofisher, Cat. Nr. 10888-022), N2 (Life Technologies, Cat. Nr. A-003-E) and B27 supplements (Life Technologies, Cat.Nr. 12587010), 1 mM sodium pyruvate (Life Technologies, Cat.Nr. 11360-039), 2 mM glutamax (Life Technologies, Cat. Nr. 35050038), 1 mM HEPES (Fisher Scientific, Cat. Nr. BP299-1), 0.1 mM β-mercaptoethanol (Life Technologies, Cat. Nr. 31350010), 1× nonessential amino acids (Life Technologies, Cat. Nr. 11140-035), 0.006% bovine serum albumin (Sigma, Cat. Nr. A8577-10ML), 4 μg/ml heparin (Sigma, Cat. Nr. H3149-25KU), 100 U/ml penicillin, 100 μg/ml streptomycin, 20 ng/ml hEGF (R&D Systems, Cat. Nr. 236-EG-200), 10 ng/ml bFGF (Peprotech, Cat. Nr. 100-18B).
as §2

G14 cells = assay: Survival assay (MTT), G14; type: cell-based, human; conditions: Homo sapiens, G14, Glioma, Grade IV, 72 hours
Description: as §3, §2

G30 cells = assay: Survival assay (MTT), G30; type: cell-based, human; conditions: Homo sapiens, G30, Glioma, Grade IV, 72 hours
Description: as §1, §2

G144 cells = assay: Survival assay (MTT), G144; type: cell-based, human; conditions: Homo sapiens, G144, Glioma, Grade IV, 72 hours
Description: as §3, §2

G166 cells = assay: Survival assay (MTT), G166; type: cell-based, human; conditions: Homo sapiens, G166, Glioma, Grade IV, 72 hours
Description: as §3, §2

U3017 cells = assay: Survival assay (MTT), U3017; type: cell-based, human; conditions: Homo sapiens, U3017, Glioma, Grade IV, 72 hours
Description: as §1, §2

DIPG007 cells = assay: Survival assay (MTT), DIPG007; type: cell-based, human; conditions: Homo sapiens, DIPG007, Glioma, Grade IV, 72 hours
Description: as §1, §2

U3013 cells = assay: Survival assay (MTT), U3013; type: cell-based, human; conditions: Homo sapiens, U3013, Glioma, Grade IV, 72 hours
Description: as §1, §2

CB152 cells = assay: Survival assay (MTT), CB152; type: cell-based, human; conditions: Homo sapiens, CB152, Glioma, Grade IV, 72 hours
Description: as §1, §2

[1] = test system: Glioma, Grade IV cell lines; assay: Survival assay, panel of 12 patient derived Glioma, Grade IV cell lines; type: cell-based, human; conditions: of 12 cell lines of Table 2
Description: as §3, §1, §2
Due to lack of activity in previous assays, 5-carboxyl-2′-deoxycytidine was not included in this more rigorous analysis.

[2] = test system: SF-188 grade IV glioma cells; assay: Apoptosis flow cytometry (Annexin V / 7AAD); type: cell-based, human; conditions: SF-188 cells, 100 μM, 72 hours
Description: 100,000 cells were seeded in a 6-well plate and incubated with 100 μM of Temozolomide, 2′-Deoxy-5-hydroxymethylcytidine, 5-Formyl-2′-deoxycytidine or DMSO for 72 hours. Detection of apoptotic cells was assessed using Annexin V-7-amino-actinomycin D (7-AAD) Apoptotic Detection Kit (Nordic Biosite AS, Cat. Nr. 640922) according to manufacturer's protocol.
Fluorescence-activated cell sorting analysis was performed on LSR Fortessa (BD Biosciences) and data were analyzed on FlowJo software. All experiments were performed in triplicates.
It was therefore evaluated whether 5-formyl-2′deoxycytidine and 5-hydroxymethyl-2′-deoxycytidine were killing sensitive cells or causing them to be delayed in the cell cycle. SF-188 grade IV glioma cells were treated either with DMSO, temozolomide, 5-formyl-2′-deoxycytidine, or 5-hydroxymethyl-2′-deoxycytidine at the indicated concentration. […] A majority of SF-188 cells treated with 5-formyl-2′-deoxycytidine or 5-hydroxymethyl-2′-deoxycytidine were dead according to the flow cytometry profile (FIG. 2A).

HeLa cells = assay: Survival assay (MTT), HeLa; conditions: for IC50: Homo sapiens, HeLa; for cytotoxicity to HeLa cells (cell survival): three days of treatment, MTT, up to 100 μM
Description: (§4) Cell lines not mentioned above were grown in DMEM (Sigma, Cat.Nr. D6429) supplemented with 10% Fetal Bovine Serum and 100 U/ml penicillin 100 U/ml streptomycin. All cells were maintained in a 5% CO2, humidified, water-jacketed incubator at 37° C. Cells were passed between 70 and 90% confluence.
(§5) In a 96-well plate, 4000 cells in 100 μl of corresponding medium were seeded. The following day, drugs, diluted in DMSO, were added in 8 concentrations in triplicate. Drugs were added as a 4-fold dilution series starting from 100 μM. Cells were incubated with the drugs for 72 hours. Cell proliferation was assessed by MTT assay according to the manufacturer's protocol (ATCC, Cat. Nr. 30-1010K). Cell survival was normalized to the survival of cells treated with DMSO only. Experiment was performed three times, data represent mean of nine wells±SEM.
HeLa cells, grown as described above (Materials and Methods), were treated with 5-hydroxymethyl-2′-deoxycytidine and 5-formyl-2′-deoxycytidine. After three days of treatment with these compounds, cell survival was assessed as described above (Materials and Methods).
After three days of treatment with these compounds at a concentration of 100, 25, 6.25, 1.56, 0.39, 0.1, 0.02, or 0.006 μM, cell survival was assessed by MTT assay as described above (Materials and Methods).

U87-MG cells = assay: Survival assay (MTT), U87-MG; conditions: for cytotoxicity to U87-MG cells (cell survival): up to 100 μM; for IC50: U87-MG; for rescue of cytotoxicity by the addition of thymidine: U87-MG cells; for cytotoxic effect in combination with Temozolomide: temozolomide resistant U87-MG cells
Description: as §4, §5
In a 96-well plate, 4000 cells in 100 μl of corresponding medium were seeded. The following day, drugs, diluted in DMSO, were added in triplicate at a concentration of 100, 25, 6.25, 1.56, 0.39, 0.1, 0.02, or 0.006 ┘M. Cells were incubated with the drugs for 72 hours. Cell proliferation was assessed by MTT assay according to the manufacturer's protocol (ATCC, Cat. Nr. 30-1010K). Cell survival was normalized to the survival of cells treated with DMSO only. Experiment was performed three times, data represent mean of nine wells±SEM.

[3] = A549, 72 h, A549, Lung Carcinoma, 72 hours, MTT
[4] = A549, A549, Tables 6 and 7, unit inferred
[5] = 22Rv1, 22Rv1, Tables 6 and 7, unit inferred
[6] = 22Rv1, 72 h, 22Rv1, Prostate Carcinoma, 72 hours, MTT
[7] = MIA PaCa-, Pancreatic Carcinoma, 72 hours, MTT
[8] = U937, Tables 6 and 7, unit inferred
[9] = A375, Malignant Melanoma, 72 hours, MTT
[10] = A375, Tables 6 and 7, unit inferred
[11] = SK-OV-3, Ovarian Adenocarcinoma, 72 hours, MTT
[12] = SK-OV-3, Tables 6 and 7, unit inferred
[13] = MCF-7, Epithelial Adenocarcinoma (Breast), 72 hours, MTT
[14] = MCF-7, Tables 6 and 7, unit inferred
[15] = Bone Osteoscarcoma, 72 hours, MTT
[16] = 72 hours, MTT, listed as 5-hydroxymethyl-2′-deoxycytidine
[17] = Homo sapiens, U-87 MG, Tables 6 and 7, unit inferred
[18] = Homo sapiens, U-87 MG, 72 h, Glioma, Grade IV, MTT

Structure (SMILES) | IC50 (A549 cells; [3]) | IC50 (22Rv1 cells; [6]) | IC50 (MIA PaCa-2 cells; [7]) | IC50 (U937 cells; U937, Lymophoma, 72 hours, MTT) | IC50 (A375 cells; [9]) | IC50 (SK-OV-3 cells; [11]) | IC50 (MCF-7 cells; [13]) | IC50 (U2OS cells; [15]) | IC50 (G7 cells) | IC50 (G14 cells) | IC50 (G30 cells) | IC50 (G144 cells) | IC50 (G166 cells) | IC50 (U3017 cells) | IC50 (DIPG007 cells) | IC50 (U3013 cells) | IC50 (CB152 cells) | number of Glioma, Grade IV cell lines killed [1] | dead cells by flow cytometry (Annexin V, 7AAD) [2] | IC50 (HeLa cells; 72 h) | further results
Nc1nc(=O)n([C@H]2C[C@H](O)[C@@H](CO)O2)cc1CO [2d5hmC, 5-hydroxymethyl-2′-deoxycytidine] | > 25 µM | > 25 µM | > 25 µM | > 25 µM | > 25 µM | > 25 µM | > 25 µM | > 25 µM | 11.9 µM | 25.4 µM | 28.1 µM | > 100 µM | > 100 µM | 14.1 µM | > 100 µM | > 100 µM | > 100 µM | 6 of 12 | dead and not arrested at a cell cycle checkpoint | > 25 µM | IC50 (A549 cells; [4]): ≥ 25 µM; IC50 (22Rv1 cells; [5]): ≥ 25 µM; IC50 (MIA PaCa-2 cells; Tables 6 and 7, unit inferred): ≥ 25 µM; IC50 (U937 cells; [8]): ≥ 25 µM; IC50 (A375 cells; [10]): ≥ 25 µM; IC50 (SK-OV-3 cells; [12]): ≥ 25 µM; IC50 (MCF-7 cells; [14]): ≥ 25 µM; IC50 (U2OS cells; Tables 6 and 7, unit inferred): ≥ 25 µM; IC50 (HeLa cells): ≥ 25 µM; cytotoxicity to HeLa cells (cell survival) (HeLa cells): did not differ from DMSO treated cells; cytotoxicity to U87-MG cells (cell survival) (U87-MG cells; [16]): cytotoxic; cytotoxicity to U87-MG cells (cell survival) (U87-MG cells; 72 hours, MTT, listed as d5hmC): markedly more cytotoxic; IC50 (U87-MG cells; [17]): 3.03 µM; rescue of cytotoxicity by the addition of thymidine (U87-MG cells; 72 hours, MTT): not rescued; IC50 (U87-MG cells; Glioma, Grade IV, 72 hours, MTT): > 0.334 µM; cytotoxic effect in combination with Temozolomide (U87-MG cells; [16]): synergistically; cytotoxic effect in combination with Temozolomide (U87-MG cells; 72 hours, MTT, listed as d5hmC): more effective
Nc1nc(=O)n([C@H]2C[C@H](O)[C@@H](CO)O2)cc1C=O [2d5fC, 5-formyl-2′-deoxycytidine] | > 25 µM | > 25 µM | 1.14 µM | 0.954 µM | 3.19 µM | 9.69 µM | 0.866 µM | 8.69 µM | 19.2 µM | > 100 µM | 18 µM | > 100 µM | > 100 µM | > 100 µM | > 100 µM | > 100 µM | > 100 µM | 5 of 12 | dead and not arrested at a cell cycle checkpoint | 0.76 µM | IC50 (A549 cells; [4]): ≥ 25 µM; IC50 (22Rv1 cells; [5]): ≥ 25 µM; IC50 (MIA PaCa-2 cells; Tables 6 and 7, unit inferred): 1.14 µM; IC50 (U937 cells; [8]): 0.954 µM; IC50 (A375 cells; [10]): 3.19 µM; IC50 (SK-OV-3 cells; [12]): 9.69 µM; IC50 (MCF-7 cells; [14]): 0.866 µM; IC50 (U2OS cells; Tables 6 and 7, unit inferred): 8.69 µM; IC50 (HeLa cells): 0.76 µM; cytotoxicity to HeLa cells (cell survival) (HeLa cells): markedly greater cytotoxic effect; cytotoxicity to U87-MG cells (cell survival) (U87-MG cells; 72 hours, MTT): markedly more cytotoxic; IC50 (U87-MG cells; [18]): 0.334 µM; IC50 (U87-MG cells; [17]): 0.334 µM; rescue of cytotoxicity by the addition of thymidine (U87-MG cells; 72 hours, MTT): not rescued; cytotoxic effect in combination with Temozolomide (U87-MG cells; 72 hours, MTT, listed as 5-formyl-2′-deoxycytidine): synergistically; cytotoxic effect in combination with Temozolomide (U87-MG cells; 72 hours, MTT, listed as d5fC): more effective
Cn1nnc2c(C(N)=O)ncn2c1=O [Temozolomide, 4-methyl-5-oxo-2,3,4,6,8-pentazabicyclo[4.3.0]nona-2,7,9-triene-9-carboxamide, reference compound] | 1.02 µM | > 25 µM | > 25 µM | 13.1 µM | > 25 µM | > 25 µM | > 25 µM | > 25 µM | 6.18 µM | 6.02 µM | 21.6 µM | 14.7 µM | > 100 µM | > 100 µM | > 100 µM | > 100 µM | > 100 µM | 5 of 12 | slight increase in the amount of dead cells | > 25 µM | IC50 (U87-MG cells; [18]): > 25 µM

From patent US12605397B2, “Deoxy-cytidine or uridine derivatives for use in cancer therapies” (HEMISPHERIAN AS, priority 2019, dated 2026)
